Experimental data as given in US11723360B2 (priority 2018, dated 2023).
Values after ≈ are worked out from the molar mass of the structure shown. Where two headings read alike, the source gives them in different places.

Columns and labels:
Meloidogyne incognita = experiment: Insecticidal bioassay against root-knot nematodes in 96-well plate; design: Lethality Rate (%): dose or concentration left out as unconfirmed; conditions: for LC50: Meloidogyne incognita
Caenorhabditis elegans = experiment: Insecticidal bioassay against Caenorhabditis elegans in 96-well plate; type: in vivo; conditions: for LC50: Caenorhabditis elegans
Description: 20 μL of 1 mg/mL methylmalonic acid aqueous solution was added to the 96-well plate, and at the same time, purified water was added; the final concentrations of the methylmalonic acid in the well plate was adjusted to […] in order; 40 nematodes were added to each well; and a bioassay system was 200 μL in total, with the purified water as a control. The process was repeated 3 times for each group. They were cultured in an incubator at 16° C.
20 μL of 1 mg/mL mixed aqueous solution of methylmalonic acid and betaine (mass ratio: 1:1) was added to the 96-well plate, and at the same time, purified water was added; the final concentrations of the compounded solution in the well plate was adjusted to 1000, 100, 25, 16.67, 12.5, 10, 1, 0.5, 0.25 μg/mL in order; and 40 nematodes were added to each well; a bioassay system was 200 μL in total, with the purified water as a control, and 3 times repeated for each group. They were cultured in an incubator at 16° C.

Rhizoctonia solani = experiment: Mycelium growth rate method, fungal plant pathogens; type: cell-based; design: key: +: effective; −: ineffective; conditions: 28° C.
Description: (§1) The mycelia of fungal pathogens were picked and inoculated to a PDA medium for activation. With a mycelium growth rate method, 200 μg/mL methylmalonic acid mother liquid was prepared using sterile water; 4.5 mL of sterile water was added to 0.5 mL of the mother liquid and evenly mixed; fungal masses were picked and placed in a PDA culture medium plate center, and then cultured at 28° C. to observe the results, with the sterile water as a negative control. After the plate was fully covered with the control mycelia, the diameters of the control and treatment colonies were counted with a crossing method.
as §1, with “μg/mL mixed aqueous solution of” for “μg/mL”, “acid and betaine (mass ratio: 1:1)” for “acid mother liquid”, “the mixed solution” for “the mother liquid”

Corynespora cassiicola = experiment: as above; type: cell-based; design: key: +: effective; −: ineffective; conditions: 28° C.
Description: as §1
as §1, with “μg/mL mixed aqueous solution of” for “μg/mL”, “acid and betaine (mass ratio: 1:1)” for “acid mother liquid”, “the mixed solution” for “the mother liquid”

Pestalotiopsis theae = experiment: as above; type: cell-based; design: key: +: effective; −: ineffective; conditions: 28° C.
Description: as §1
as §1, with “μg/mL mixed aqueous solution of” for “μg/mL”, “acid and betaine (mass ratio: 1:1)” for “acid mother liquid”, “the mixed solution” for “the mother liquid”

Alternaria solani = experiment: as above; type: cell-based; design: key: +: effective; −: ineffective; conditions: 28° C.
Description: as §1
as §1, with “μg/mL mixed aqueous solution of” for “μg/mL”, “acid and betaine (mass ratio: 1:1)” for “acid mother liquid”, “the mixed solution” for “the mother liquid”

Phytophthora capsici = experiment: as above; type: cell-based; design: key: +: effective; −: ineffective; conditions: 28° C.
Description: as §1
as §1, with “μg/mL mixed aqueous solution of” for “μg/mL”, “acid and betaine (mass ratio: 1:1)” for “acid mother liquid”, “the mixed solution” for “the mother liquid”

Fusarium oxysporum = experiment: as above; type: cell-based; design: key: +: effective; −: ineffective; conditions: 28° C.
Description: as §1
as §1, with “μg/mL mixed aqueous solution of” for “μg/mL”, “acid and betaine (mass ratio: 1:1)” for “acid mother liquid”, “the mixed solution” for “the mother liquid”

Sclerotinia sclerotiorum = experiment: as above; type: cell-based; design: key: +: effective; −: ineffective; conditions: 28° C.
Description: as §1
as §1, with “μg/mL mixed aqueous solution of” for “μg/mL”, “acid and betaine (mass ratio: 1:1)” for “acid mother liquid”, “the mixed solution” for “the mother liquid”

Botrytis cinerea = experiment: as above; type: cell-based; design: key: +: effective; −: ineffective; conditions: 28° C.
Description: as §1
as §1, with “μg/mL mixed aqueous solution of” for “μg/mL”, “acid and betaine (mass ratio: 1:1)” for “acid mother liquid”, “the mixed solution” for “the mother liquid”

fungal plant pathogens = experiment: Mycelium growth rate method, summary statement for all fungi tested; type: cell-based; conditions: Example 5
Description: as §1
as §1, with “μg/mL mixed aqueous solution of” for “μg/mL”, “acid and betaine (mass ratio: 1:1)” for “acid mother liquid”, “the mixed solution” for “the mother liquid”

[1] = water, alcohol, ether; cited from earlier work
Ralstonia solanacearum = type: cell-based
Xanthomonas campestris = experiment: Agar plate diffusion method, bacterial plant pathogens; type: cell-based; conditions: 5 μL of 0.1 g/mL on 6 mm filter paper, 30° C.
Erwinia carotovora = experiment: as above; type: cell-based
[2] = read-out: LC50 against the Meloidogyne incognita
[3] = read-out: LC50 value against the Meloidogyne incognita
[4] = 200 μg/mL mother liquid, 0.5 mL + 4.5 mL sterile water, PDA
[5] = Example 9: 200 μg/mL mixed aqueous solution of methylmalonic acid and betaine (1:1), 0.5 mL + 4.5 mL water
[6] = 5 μL of 0.1 g/mL on 6 mm filter paper, 30° C.

C[N+](C)(C)CC(=O)O [betaine]
LC50 (Meloidogyne incognita; [2]): 75.2 µg/mL | LC50 (Meloidogyne incognita; [3]): 75.2 µg/mL | LC50 (Caenorhabditis elegans; text of Examples 3 and 7, read-out: LC50 against the Caenorhabditis elegans): 14.8 µg/mL

CC(C(=O)O)C(=O)O [methylmalonic acid]
Microbicidal Effect (Rhizoctonia solani; [4]): − | Microbicidal Effect (Rhizoctonia solani; [5]): − | Microbicidal Effect (Corynespora cassiicola; [4]): − | Microbicidal Effect (Corynespora cassiicola; [5]): − | Microbicidal Effect (Pestalotiopsis theae; [4]): − | Microbicidal Effect (Pestalotiopsis theae; [5]): − | Microbicidal Effect (Alternaria solani; [4]): − | Microbicidal Effect (Alternaria solani; [5]): − | Microbicidal Effect (Phytophthora capsici; [4]): − | Microbicidal Effect (Phytophthora capsici; [5]): − | Microbicidal Effect (Fusarium oxysporum; [4]): − | Microbicidal Effect (Fusarium oxysporum; [5]): − | Microbicidal Effect (Sclerotinia sclerotiorum; [4]): − | Microbicidal Effect (Sclerotinia sclerotiorum; [5]): − | Microbicidal Effect (Botrytis cinerea; [4]): − | Microbicidal Effect (Botrytis cinerea; [5]): − | microbicidal activity against the fungal plant pathogens (fungal plant pathogens): showed no microbicidal activity | solubility (physical properties) [1]: soluble in water, alcohol and ether | Lethality Rate (%) (Meloidogyne incognita; Dose 1): 8.1% | Lethality Rate (%) (Meloidogyne incognita; Dose 10): 12.5% | Lethality Rate (%) (Meloidogyne incognita; Dose 12.5): 29.3% | Lethality Rate (%) (Meloidogyne incognita; Dose 16.67): 76.3% | Lethality Rate (%) (Meloidogyne incognita; Dose 25): 81.1% | Lethality Rate (%) (Meloidogyne incognita; Dose 50): 80% | Lethality Rate (%) (Meloidogyne incognita; Dose 100): 97.5% | Lethality Rate (%) (Meloidogyne incognita; Dose 1000): 97.4% | LC50 (Meloidogyne incognita; [2]): 13.1 µg/mL (≈ 111 µM) | LC50 (Meloidogyne incognita; [3]): 13.1 µg/mL (≈ 111 µM) | LC50 (Meloidogyne incognita; read-out: Medial Lethal Concentration (LC50, ug/mL)): 13.1 µg/mL (≈ 111 µM) | Diameter of Inhibition Zone (Ralstonia solanacearum; [6]): 12 mm | Microbicidal Effect (Ralstonia solanacearum; [6]): ++ (with microbicidal activity, and the diameter of an inhibition zone being more than 10 mm) | microbicidal activity against the Pseudomonas solanacearum (Ralstonia solanacearum; 5 μL of 0.1 g/mL, Example 4): showed a microbicidal activity | Diameter of Inhibition Zone (Xanthomonas campestris): 0 mm | Microbicidal Effect (Xanthomonas campestris): − | LC50 (Caenorhabditis elegans; 16° C., table value, read-out: Medial Lethal Concentration (LC50, ug/mL)): 1.2 µg/mL (≈ 10.2 µM) | LC50 (Caenorhabditis elegans; read-out: LC50 value against the Caenorhabditis elegans, text of Example 3): 1.2 µg/mL (≈ 10.2 µM) | Lethality Rate (%) (Caenorhabditis elegans; Dose 1 pg/mL): 18.4% | Lethality Rate (%) (Caenorhabditis elegans; Dose 10 pg/mL): 70.0% | Lethality Rate (%) (Caenorhabditis elegans; Dose 16.67 pg/mL): 94.9% | Lethality Rate (%) (Caenorhabditis elegans; Dose 25 pg/mL): 90.5% | Lethality Rate (%) (Caenorhabditis elegans; Dose 100 pg/mL): 97.4% | Lethality Rate (%) (Caenorhabditis elegans; Dose 1000 pg/mL): 97.5% | Diameter of Inhibition Zone (Erwinia carotovora; [6]): 6.9 mm | Microbicidal Effect (Erwinia carotovora; [6]): + (with microbicidal activity, the diameter of an inhibition zone being less than 10 mm) | microbicidal activity against the Erwinia carotovora (Erwinia carotovora; 5 μL of 0.1 g/mL, Example 4): showed a microbicidal activity
